Measurements: patent US11014911B2, “CDK2 inhibitors” (Pfizer Inc., priority 2019, dated 2021)

Target: CDK2/Cyclin E1 full length (Homo sapiens (Human), UniProt P24941)
Assay: CDK2/Cyclin E1 full length mobility shift assay
Assay type: biochemical

Compound | Ki [nM]
Cc1nnc(CC(=O)Nc2cc([C@H]3CC[C@@H](OC(=O)NC(C)(C)C)C3)[nH]n2)s1 [Example 305, (1R,3S)-3-(3-{[(5-methyl-1,3,4-thiadiazol-2-yl)acetyl]amino}-1H-pyrazol-5-yl)cyclopentyl tert-butylcarbamate] | 0.52
CC1(NC(=O)O[C@@H]2CC[C@H](c3cc(NC(=O)Cc4ccno4)n[nH]3)C2)CCOC1 (single isomer, unassigned) [Example 474] | 0.44
Cc1cnc(CC(=O)Nc2cc([C@H]3CC[C@@H](OC(=O)N4CC[C@@H]4C)C3)[nH]n2)cn1 [Example 591, (1R,3S)-3-(3-{[(5-methylpyrazin-2-yl)acetyl]amino}-1H-pyrazol-5-yl)cyclopentyl (2S)-2-methylazetidine-1-carboxylate] | 1.67
CC[C@H](C)NC(=O)O[C@@H]1CC[C@H](c2cc(NC(=O)Cc3c(S(C)(=O)=O)c4ccccc4n3C)n[nH]2)C1 [Example 377, (1R,3S)-3-[3-({[1-methyl-3-(methylsulfonyl)-1H-indol-2-yl]acetyl}amino)-1H-pyrazol-5-yl]cyclopentyl (2S)-butan-2-ylcarbamate] | 1.14
Cc1cc(CC(=O)Nc2cc([C@H]3CC[C@@H](OC(=O)NC4(C)CC4)C3)[nH]n2)no1 [Example 7, (1R,3S)-3-(3-{[(5-methyl-1,2-oxazol-3-yl)acetyl]amino}-1H-pyrazol-5-yl)cyclopentyl (1-methylcyclopropyl)carbamate] | 0.61
O=C(Cc1ccc(F)cc1)Nc1cc([C@H]2CC[C@@H](OC(=O)NCC(F)F)C2)[nH]n1 [Example 248, (1R,3S)-3-(3-{[(4-fluorophenyl)acetyl]amino}-1H-pyrazol-5-yl)cyclopentyl (2,2-difluoroethyl)carbamate] | 2.41
Cc1coc(CC(=O)Nc2cc([C@H]3CC[C@@H](OC(=O)NC4(C)CC4)C3)[nH]n2)n1 [Example 422, (1R,3S)-3-(3-{[(4-methyl-1,3-oxazol-2-yl)acetyl]amino}-1H-pyrazol-5-yl)cyclopentyl (1-methylcyclopropyl)carbamate] | 0.55
C[C@H](NC(=O)O[C@@H]1CC[C@H](c2cc(NC(=O)Cc3cnn(C)c3)n[nH]2)C1)[C@@H](C)F [Example 380, (1R,3S)-3-(3-{[(1-methyl-1H-pyrazol-4-yl)acetyl]amino}-1H-pyrazol-5-yl)cyclopentyl [(2S,3R)-3-fluorobutan-2-yl]carbamate] | 0.63
Cc1cc(CC(=O)Nc2cc([C@H]3CC[C@@H](OC(=O)NC4(C)CC4)C3)[nH]n2)ncc1Cl [Example 440, (1R,3S)-3-(3-{[(5-chloro-4-methylpyridin-2-yl)acetyl]amino}-1H-pyrazol-5-yl)cyclopentyl (1-methylcyclopropyl)carbamate] | 1.47
CC(CC(F)(F)F)NC(=O)O[C@@H]1CC[C@H](c2cc(NC(=O)Cc3ccno3)n[nH]2)C1 (single isomer, unassigned) [Example 85] | 1.06
C[C@H](NC(=O)O[C@@H]1CC[C@H](c2cc(NC(=O)Cc3ccon3)n[nH]2)C1)C1CC1 [Example 466, (1R,3S)-3-{3-[(1,2-oxazol-3-ylacetyl)amino]-1H-pyrazol-5-yl}cyclopentyl [(1S)-1-cyclopropylethyl]carbamate] | 1.02
Cc1coc(CC(=O)Nc2cc([C@H]3CC[C@@H](OC(=O)NC(C)(C)C)C3)[nH]n2)n1 [Example 296, (1R,3S)-3-(3-{[(4-methyl-1,3-oxazol-2-yl)acetyl]amino}-1H-pyrazol-5-yl)cyclopentyl tert-butylcarbamate] | 0.3
Cc1ncc(CC(=O)Nc2cc([C@H]3CC[C@@H](OC(=O)N4C[C@@H](C#N)[C@@H]4C)C3)[nH]n2)s1 (single isomer, unassigned) [Example 159] | 3.63
CC1(NC(=O)O[C@@H]2CC[C@H](c3cc(NC(=O)CC4COc5ccccc54)n[nH]3)C2)CCOC1 (single isomer, unassigned) [Example 489] | 3.71
COc1cc(CC(=O)Nc2cc([C@H]3CC[C@@H](OC(=O)N4C[C@@H](C#N)[C@@H]4C)C3)[nH]n2)ccn1 (single isomer, unassigned) [Example 156] | 2.21
